These results are taken from patent US20240207282A1, “METHOD OF INCREASING CHAPERONE MEDIATED AUTOPHAGY BY STABILIZING THE INTERACTION OF RETINOIC ACID RECEPTOR-ALPHA AND AN INHIBITOR” (ALBERT EINSTEIN COLLEGE OF MEDICINE, priority 2021, published 2024).

Each structure is given as a SMILES string.

Data set [1] can be described thus: In vitro solubility by nephelometry. The data set is classed as physicochemical. The procedure:
In vitro solubility in the following conditions A) HBSS/HEPES 10 mM/BSA 0.1% pH 6 B) HBSS/HEPES 10 mM/BSA 0.1% pH 7.4 C) TRIS/BSA 0.1% PBS (pH 7.4 and at indicated doses were measured by Nephelometry using the NEPHELOstar Galaxy apparatus (BMG Lab Technologies). In vitro stability in human, mouse and rat liver microsomes and permeability using a bidirectional permeability assay with CaCo-2 cells (pH 6.5/7.4) assays were performed with standard methodology and analyzed by LC-MS/MS. at SIMM-SERVIER joint Biopharmacy Laboratory. In silico ADME properties calculated by QikProp (Schrodinger, LLC) analysis and ADME predictions for CA39 (left) and CA77 (right).

Another data set concerns NIH3T3 cells. The conditions noted are these: previously reported; cited from earlier work.
The test system of a further data set is NIH3T3. As to the kind of experiment: Macroautophagy activity (LC3-II flux, mCherry-GFP-LC3 reporter). As to conditions: 20 μM 16 h (LC3 flux). The data set is classed as cell-based, mouse. The procedure:
Macroautophagy activity: Cells were transduced with a lentiviral vector expressing mCherry-GPF-LC3^32, fixed and flux determined as the conversion of dual fluorescence puncta (autophagosomes) into only red fluorescent puncta (autolysosomes). Flux was also measured by immunoblot for LC3 in cells incubated for 6 h with 20 mM NH4Cl/100 μM leupeptin, by discounting the intensity of LC3 in non-treated cells from that in cells treated with the inhibitors.

In another data set the test system is neuron-related cells. In words: CMA activity, KFERQ-PS-Dendra reporter in neuron-related cells. The conditions noted are these: for CMA activation: neuronal-related mouse cells. The data set is classed as cell-based, mouse. The procedure:
(§1) Cells: NIH3T3 mouse fibroblasts and the N2a neuroblastoma cell line were obtained from the American Type Culture Collection and were validated by genomic PCR. Primary human fibroblasts (GM01651) were from Coriell Repository. All the cells lines were tested for mycoplasma contamination using DNA staining protocol with Hoechst 33258 dye. Knock-down of NCoR1 was done using lentiviral mediated shRNA (SHCLNG-NM_011308) from the Sigma Mission library following standard procedures. Efficiency of knock-down was tested by immunoblot. Cell viability was measured using the CellTiter-Blue kit (Promega) 24 h after the addition of the different stressors according to manufacturer's instructions.
(§2) CMA activity: Cells were transduced with lentivirus carrying the KFERQ-PS-Dendra reporter as before. Cells were photoactivated by exposure to a 3.5 mA (current constant) light emitting diode (LED: Norlux, 405 nm) for 3 min and then plated in glass-bottom 96 well plates. At the desired times, cells were fixed with 4% PFA and imaged using high-content microscopy (Operetta system, Perkin Elmer). Images were quantified using the manufacturer's software in a minimum of 1,200 cells in 9 independent fields per well. […] To avoid con-funding effects for drug-induced changes in cell volume or adherence to the plate that could bring a fraction of the cells per field outside of focus, we set a threshold to count only cells that have at least 1/10 of the average number of […] detected in the untreated wells for each cell type (3-4 puncta/cell in the case of NIH3T3 and N2a cells and 5 puncta/cell in primary human fibroblasts). […] Slices were mounted in DAPI-Fluoromount-G to highlight the cell nucleus and allow quantification of puncta per cell. Images were acquired in x-y-z planes with an Axiovert 200 fluorescence microscope (Carl Zeiss Ltd) with a ×63 objective and 1.4 numerical aperture, mounted with an ApoTome.2 slider or with a Confocal microscope (TCS SP5; Leica) using an HCX Plan Apo CS×63.0 1.40 NA oil objective and the Leica Application Suite X (LAS X).

In another data set the test system is human cells. In words: CMA activity, KFERQ-PS-Dendra reporter in human cells. It counts as cell-based. The procedure:
as §1, §2

The nature of data set [2]: Pharmacokinetics in mice (plasma and brain). The data set is classed as in vivo, mouse. As to conditions: mice; for brain to plasma ratio: i.v. or p.o. The procedure: ICR (CD-1) male mice were fasted at least three hours and water was available ad libitum before the study. Animals were housed in a controlled environment, target conditions: temperature 18 to 29° C., relative humidity 30 to 70%. Temperature and relative humidity was monitored daily. An electronic time controlled lighting system was used to provide a 12 hr light/12 hr dark cycle. 3 mice for each indicated time point were administered 30 mg/Kg CA39 or CA77 by oral gavage or 1 mg/Kg CA39 or CA77 by intravenous injection using 30% PEG-400, 65% D5W (5% dextrose in water), 5% Tween-80 vehicle. Mice were sacrificed, and brain samples were harvested at 0 hr, 0.25 hr, 0.5 hr, 1 hr, 2 hr, 4 hr, 8 hr, 24 hr, and analyzed for CA39 or CA77 levels using LC-MS/MS. Pharmacokinetics parameters were calculated using Phoenix WinNonlin 6.3. Experiments performed at SIMM-SERVIER joint Biopharmacy Laboratory.

`Clc1ccc2c(c1)OCC(c1ccc(-c3ccccc3)cc1)=N2` [CA39]: in data set [1], the solubility entry is reported as “reasonable solubility”. For the same compound, the toxicity entry in the data set with NIH3T3 cells is on record as “without noticeable toxicity”. Moreover, in the data set with NIH3T3, the effect on macroautophagy result is “did not have the inhibitory effect on macroautophagy”. Besides, in the data set on neuron-related cells, the CMA activation result is listed as “efficiently activate CMA”. Further, in the data set with human cells, the CMA activation result is listed as “efficiently activate CMA”. Further, the half-life in data set [2] (male, ICR (CD-1), mouse, plasma, intravenous, 1 mg/kg, route not printed (second pair of values), read-out: half-life in plasma (converted)) is 8.2 h. In addition, in data set [2], the “blood brain barrier crossing” value was “efficiently crossed the brain blood barrier” and the “brain to plasma ratio” value is given as “high”. This compound also returned a half-life in brain in data set [2] (IV 1 mg/kg) of 8 h. Further, in data set [2] (PO 30 mg/kg), the half-life in brain was found to be 10 h and the half-life in plasma was 7.5 h.

Regarding `CC(=O)Nc1ccc(C2=Nc3ccc(Cl)cc3OC2)cc1` [CA77], the solubility result in data set [1] is given as “reasonable solubility”. Moreover, in the data set with NIH3T3 cells, the toxicity entry is listed as “without noticeable toxicity”. Further, the effect on macroautophagy entry with NIH3T3 was “did not have the inhibitory effect on macroautophagy”. The “CMA activation after removal of compound” value in the data set with neuron-related cells (compound removed from the media) was “persisted and even further increased after the compound was removed from the media”. The CMA activation entry with neuron-related cells is reported as “efficiently activate CMA”. The CMA activation entry in the data set on human cells is “efficiently activate CMA”. Besides, in data set [2], the “blood brain barrier crossing” value was “efficiently crossed the brain blood barrier” and the “brain to plasma ratio” value is on record as “high”. In data set [2] (IV 1 mg/kg), the half-life in brain was 1.8 h. In data set [2] (PO 30 mg/kg), this compound displayed a half-life in brain of 4.2 h and a half-life in plasma of 2.2 h.
